Assay results reported in patent US20240300928A1, “GLP-1 RECEPTOR AGONIST, PHARMACEUTICAL COMPOSITION COMPRISING SAME, AND METHOD FOR PREPARING SAME” (LG CHEM, LTD., priority 2021, published 2024).

Target: T1, hGLP-1R (Homo sapiens, UniProt P43220)
T1 construct: expressed in transfected cells; host or cells: CHO-K1 (hGLP-1R and CRE-luciferase reporter)
Assay: GLP-1R agonist activity measurement (cell-based luciferase assay)
Settings: CHO-K1/hGLP-1R/CRE-luciferase cell line, 4 h treatment, Bright-Glo luminescence
Experimental: Experimental Example 1: GLP-1R Agonist Activity Measurement (Cell-Based Luciferase Assay)
The CHO-K1/hGLP-1R/CRE-luciferase cell line was seeded at 15000 cells in a 96-well plate. As a medium, Ham's F-12 Nutrient medium was used. After culturing for 18 hours in a 5% CO2 incubator maintained at 37° C., the drug was treated. Each drug plated at 9 concentrations was dissolved in DMEM/F-12+1% FBS medium and treated with 100 ul of each cell line. After culturing for 4 h, 30 ul of assay reagent was added to each well using the Bright-Glo™ luciferase assay system kit. After the plate was stored at room temperature for 15 min, luminescence was measured with a SpectraMax M5 instrument.

T1 sequence (P43220 24-463): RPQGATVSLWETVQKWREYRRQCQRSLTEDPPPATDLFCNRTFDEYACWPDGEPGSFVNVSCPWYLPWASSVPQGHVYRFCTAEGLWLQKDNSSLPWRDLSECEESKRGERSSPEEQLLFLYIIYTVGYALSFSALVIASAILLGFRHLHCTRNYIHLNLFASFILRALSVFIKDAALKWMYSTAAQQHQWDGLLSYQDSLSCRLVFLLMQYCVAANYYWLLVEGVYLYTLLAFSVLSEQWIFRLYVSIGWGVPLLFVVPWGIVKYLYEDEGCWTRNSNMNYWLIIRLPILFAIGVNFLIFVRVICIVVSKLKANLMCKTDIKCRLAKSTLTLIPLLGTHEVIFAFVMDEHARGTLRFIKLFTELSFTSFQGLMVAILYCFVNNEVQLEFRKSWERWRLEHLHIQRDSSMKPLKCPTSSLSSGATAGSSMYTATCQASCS

| SMILES | EC50 |
| --- | --- |
| O=C(O)c1ccc2nc(Cc3ccc(-c4cccnc4OCc4ccc(Cl)cc4F)cc3)n(C[C@@H]3CCO3)c2c1 [Example 1, (S)-2-(4-(2-((4-chloro-2-fluorobenzyl)oxy)pyridin-3-yl)benzyl)-1-(oxetan-2-ylmethyl)-1H-benzo[d]imidazol-6-carboxylic acid] | 0.316 nM |
| CC1(c2ccc(Cl)cc2F)Oc2cccc(-c3ccc(Cc4nc5ccc(C(=O)O)cc5n4C[C@@H]4CCO4)cc3F)c2O1 (stereo partly drawn) [Example 3, 2-(4-(2-(4-chloro-2-fluorophenyl)-2-methylbenzo[d][1,3]dioxol-4-yl)-3-fluorobenzyl)-1-(((S)-oxetan-2-yl)methyl)-1H-benzo[d]imidazol-6-carboxylic acid] | 0.041 nM |
| O=C(O)c1ccc2nc(Cc3ccc(-c4cccnc4OCc4ccc(Cl)cc4F)cc3)n(Cc3cnco3)c2c1 [Example 6, 2-(4-(2-((4-chloro-2-fluorobenzyl)oxy)pyridin-3-yl)benzyl)-1-(oxazol-5-ylmethyl)-1H-benzo[d]imidazol-6-carboxylic acid] | 3.5 nM |
| CCCn1cnnc1Cn1c(Cc2ccc(-c3cccnc3OCc3ccc(Cl)cc3F)cc2)nc2ccc(C(=O)O)cc21 [Example 7, 2-(4-(2-((4-chloro-2-fluorobenzyl)oxy)pyridin-3-yl)benzyl)-1-((4-propyl-4H-1,2,4-triazol-3-yl)methyl)-1H-benzo[d]imidazol-6-carboxylic acid] | > 80 nM |
| CCCn1cnnc1Cn1c(Cc2ccc(-c3cccc4c3OC(C)(c3ccc(Cl)cc3F)O4)cc2)nc2ccc(C(=O)O)cc21 (stereo not shown) [Example 8, 2-(4-(2-(4-chloro-2-fluorophenyl)-2-methylbenzo[d][1,3]dioxol-4-yl)benzyl)-1-((4-propyl-4H-1,2,4-triazol-3-yl)methyl)-1H-benzo[d]imidazol-6-carboxylic acid] | 0.914 nM |
| CCCn1cnnc1Cn1c(Cc2ccc(-c3cccc4c3OC(C)(c3ccc(Cl)cc3F)O4)c(F)c2)nc2ccc(C(=O)O)cc21 (stereo not shown) [Example 9, 2-(4-(2-(4-chloro-2-fluorophenyl)-2-methylbenzo[d][1,3]dioxol-4-yl)-3-fluorobenzyl)-1-((4-propyl-4H-1,2,4-triazol-3-yl)methyl)-1H-benzo[d]imidazol-6-carboxylic acid] | 0.772 nM |
| O=C(O)c1ccc2nc(Cc3ccc(-c4cccc(OCC56CCC(CC5)CC6)n4)cc3)n(C[C@@H]3CCO3)c2c1 [Example 13, (S)-2-(4-(6-(bicyclo[2.2.2]octan-1-ylmethoxy)pyridin-2-yl)benzyl)-1-(oxetan-2-ylmethyl)-1H-benzo[d]imidazol-6-carboxylic acid] | > 80 nM |

More lines, now with the values ahead:

| EC50 | SMILES |
| --- | --- |
| 0.108 nM | CC1(c2ccc(Cl)cc2F)Oc2cccc(-c3ccc(Cc4nc5ccc(C(=O)O)cc5n4C[C@@H]4CCO4)cc3)c2O1 (stereo partly drawn) [Example 2, 2-(4-(2-(4-chloro-2-fluorophenyl)-2-methylbenzo[d][1,3]dioxol-4-yl)benzyl)-1-(((S)-oxetan-2-yl)methyl)-1H-benzo[d]imidazol-6-carboxylic acid] |
| 0.278 nM | CC1(c2ccc(Cl)cc2F)Oc2cccc(-c3ccc(Cc4nc5ccc(C(=O)O)cc5n4Cc4cnco4)cc3)c2O1 (stereo not shown) [Example 4, 2-(4-(2-(4-chloro-2-fluorophenyl)-2-methylbenzo[d][1,3]dioxol-4-yl)benzyl)-1-(oxazol-5-ylmethyl)-1H-benzo[d]imidazol-6-carboxylic acid] |
| 0.16 nM | CC1(c2ccc(Cl)cc2F)Oc2cccc(-c3ccc(Cc4nc5ccc(C(=O)O)cc5n4Cc4cnco4)cc3F)c2O1 (stereo not shown) [Example 5, 2-(4-(2-(4-chloro-2-fluorophenyl)-2-methylbenzo[d][1,3]dioxol-4-yl)-3-fluorobenzyl)-1-(oxazol-5-ylmethyl)-1H-benzo[d]imidazol-6-carboxylic acid] |
| 0.0216 nM | CCn1cncc1Cn1c(Cc2ccc(-c3cccc4c3OC(C)(c3ccc(Cl)cc3F)O4)cc2)nc2ccc(C(=O)O)cc21 (stereo not shown) [Example 10, 2-(4-(2-(4-chloro-2-fluorophenyl)-2-methylbenzo[d][1,3]dioxol-4-yl)benzyl)-1-((1-ethyl-1H-imidazol-5-yl)methyl)-1H-benzo[d]imidazol-6-carboxylic acid] |
| 0.0256 nM | CCn1cncc1Cn1c(Cc2ccc(-c3cccc4c3OC(C)(c3ccc(Cl)cc3F)O4)c(F)c2)nc2ccc(C(=O)O)cc21 (stereo not shown) [Example 11, 2-(4-(2-(4-chloro-2-fluorophenyl)-2-methylbenzo[d][1,3]dioxol-4-yl)-3-fluorobenzyl)-1-((1-ethyl-1H-imidazol-5-yl)methyl)-1H-benzo[d]imidazol-6-carboxylic acid] |
| 0.223 nM | CC1(c2ccc(Cl)cc2F)Oc2cccc(-c3ccc(Cc4nc5ccc(C(=O)O)cc5n4C[C@@H]4CCCO4)cc3)c2O1 (stereo partly drawn) [Example 12, 2-(4-(2-(4-chloro-2-fluorophenyl)-2-methylbenzo[d][1,3]dioxol-4-yl)benzyl)-1-(((S)-tetrahydrofuran-2-yl)methyl)-1H-benzo[d]imidazol-6-carboxylic acid] |
